How the values were obtained:
Format in all cases: cell-based, mouse
HC11 cells [1] = assay: Milk production markers in differentiated HC11 (milk domes, Csn2 RT-qPCR, CSN2 WB, PLIN2 ICC)
Description: (§1) The HC11 cell line was obtained from American Type Culture Collection (ATCC) and routinely checked for mycoplasma (Mycoplasma PCR kit, ABM, G238). Undifferentiated HC11 cells were cultured in growing medium (RPMI-1640; Thermo Fisher Scientific, 72400047), supplemented with 10% FBS, 5 μg/ml insulin (Millipore-Sigma, 16634), 10 ng/ml epidermal growth factor (EGF; Preprotech, AF-100-15) and 1× AntiAnti (Thermo Fisher Scientific, 15240112) at 37° C. with 5% CO2. Cells were grown to confluency and maintained in growing medium for 2 days, until they became competent. Competent HC11 cells were primed for differentiation by culturing them in priming medium [RPMI-1640 supplemented with 5 μg/ml insulin, 1 μM dexamethasone (Millipore-Sigma, D4902-1 G) and 1× Anti-Anti] for 24 h at 37° C. with 5% CO2. To induce differentiation, primed HC11 cells were cultured in DIP Medium [RPMI-1640, supplemented with 10% FBS, 5 μg/ml insulin, 1 μM dexamethasone, 1× anti-anti and 3 μg/ml Prolactin (NHPP, oPRL-21)] at 37° C. with 5% CO2.
(§2) […] Drugs were maintained through the differentiation process and added with every change of media.
Whole cell lysates were prepared using 1×NP40 lysis buffer (Thermo Fisher Scientific, FNN0021) supplemented with Pierce Protease and Phosphatase inhibitors (Thermo Fisher Scientific, A32959). Cells were washed with ice-cold PBS (GIBCO, 14190136) and lysed direct in buffer and kept at 4° C. rocking at 70 rpm for 30 min. Lysed cells were collected and centrifuged at 12,000 rpm at 4° C. for 15 min. Protein concentration was quantified using Qubit 4 fluorometer (Thermo Fisher, Q33238). Samples were resolved by SDS page and transferred to polyvinylidene difluoride (PVDF, Millipore-Sigma, IPVH00010) for 60 min at 250 mA. Immunoblots were blocked for 1 h at room temperature using either 5% non-fat milk or 5% BSA TBST. Primary antibodies [anti-GAPDH (SCBT, sc-365062), anti-Actin (SCBT, sc-47778), anti-Cyclin B1 (SCBT, sc-245), anti-Cyclin E1 (Millipore-Sigma, SAB4503516) and anti-CSN2 (ABclonal, A12749)] were incubated overnight at 4° C. in a rocker. HRP-conjugated secondary antibodies ([…]) were used for 1 h at room temperature. Immunoblots were developed using Clarity ECL (Bio-Rad), detected using a Bio-Rad ChemiDoc MP Image, and quantified using ImageJ.
HC11 cells were fixed using ice-cold MeOH for 10 min. After washing with 1×PBS, cells were incubated for 1 h at room temperature with primary antibodies [anti-γH2AX (SCBT, sc-517348), anti-pATR (Genetex, GTX128145), anti-PLIN2 (generously provided by Jim McManaman)] in a humid incubation chamber. After incubation, cells were washed three times using 1×PBS and incubated for 1 h at room temperature in darkness using corresponding Alexa Fluor AffiniPure secondary antibodies (Jackson ImmunoResearch) and Phalloidin-iFluor 488 Reagent (Abcam, ab176753) when indicated. Cells were washed three times using 1×PBS and incubated with Hoechst 33342 (AnaSpec, AS-83218) for 10 min. Cells were mounted using fluoromount-G (Southern Biotech, 0100-01) and visualized using Zeiss Axio Imager Microscope. Integrated density of PLIN2, nuclear γH2AX and nuclear pATR was quantify using ImageJ.
For RNA isolation from FACS purified populations, mammary gland cell suspensions were blocked using Mouse BD Fc Block™ (BD Biosciences) for 10 min. Cells were subsequently resuspended on 1×PBS at a density of 10^7 cells/ml and stained with the following antibodies for 30 min on ice: anti-CD24 PE (Stem Cell Technologies, 60099PE.1), anti-CD29 PE-Cy7 (BioLegend, 102222), anti-CD45-APC (BioLegend,105826), Ter119-APC (BD Biosciences, 561033), CD31-ACP (BD Biosciences, 551262). Propidium iodide at a final concentration of 0.5 μg/ml was used for the discrimination of dead cells. Stromal, basal and luminal mammary populations were sorted using a BD FACS Aria II Cell Sorter. […]

HC11 cells [2] = assay: Visualization of FACS-purified HC11 subpopulations sorted on DNA content (nuclei number); conditions: sorted on DNA content 4C or >4C
Description: as §2
Mammary gland CK8+ epithelial cells or HC11 were sorted based on DNA content using BD FACS Aria II Cell Sorter. After sorting, cells were stained in suspension using Phalloidin-iFluor 488 Reagent (Abcam, ab176753) for 30 min at room temperature in darkness. Cells were spined down onto microscopy slides (Fisher, 12-550-15) using Cytospin 2 (Shandon, 599X52) at 500 rpm for 3 min. Cells were mounted using fluoromount-G (Southern Biotech, 0100-01) and visualized using Zeiss Axio Imager Microscope.

HC11 cells [3] = assay: FACS DNA content analysis of HC11 cells during lactogenic differentiation
Description: as §1, §2
For DNA content analysis of the mammary gland CK8^+ epithelial population, mammary gland cells suspension was obtained as described above. Cells were fixed in ice-cold 70% EtOH at a final concentration of 10^6 cells/ml. During fixation, cells were vigorously vortexed for 1 min to avoid the formation of cell aggregates. Cells were washed twice with washing buffer [1×PBS containing 5% FBS and 0.5% tween 20 (Fisher Chemical, BP337500)] and centrifuged at 2,000 rpm for 5 min at 4° C. Cell pellet was incubated for 1 h at room temperature with anti-CK8 (Developmental Studies Hybridoma Lab, TROMA-1), anti-GFP (Thermo Fisher, A01704) or corresponding rat (Thermo-Fisher, 10700) or rabbit (Thermo-Fisher, 10500C) IgG isotype controls. Cells were washed twice and incubated for 1 h at room temperature in darkness with FITC anti-Rat (Thermo Fisher, A24544) or FITC anti-Rabbit (Thermo Fisher, A16030) and APC anti-Rat (Jackson ImmunoResearch, 712-136-153). Cells were washed twice and resuspended in propidium iodide solution [1×PBS containing 25 μg/ml of propidium iodide (Thermo Fisher, P3566) and 100 μg/ml of RNAse (Thermo Fisher, 12091021)]. For DNA content analysis on HC11, cells were washed with 1×DPBS (GIBCO, 14190-250) and harvested using 0.05% Trypsin-EDTA (GIBCO, 25300-062). Cell suspension was washed with 1×DPBS and centrifuged at 1,000 rpm for 5 min at 4° C. Cell pellet was fixed in ice-cold 70% EtOH and then vortexed vigorously to avoid cell aggregates. After fixation, cells were washed with washing buffer [1×PBS (GIBCO, 14190136) supplemented with 5% FBS] and centrifuged at 2,000 rpm for 5 min at 4° C. The pellet was resuspended in propidium iodide solution. Cell suspensions were filtered through a 70 μm cell strainer (Falcon, 08-771-2) and analyzed using a BD LSRII cytometer or a BD FACS Aria II Cell Sorter. Populations were analyzed using FlowJo.

[4] = Ro-3306 5 μM, differentiated HC11 (DIP3)
[5] = blebbistatin 30 uM, differentiated HC11

Row | SMILES | CSN2 expression, RT-qPCR (HC11 cells [1]; [4]) | CSN2 expression, WB (HC11 cells [1]; [4]) | nuclei number of polyploid cells generated (mono-, bi-, multinucleated) (HC11 cells [2]; Ro-3306, differentiated HC11 (DIP3)) | endoreplication / polyploidy (FACS DNA content) (HC11 cells [3]; Ro-3306 5 μM, DIP3) | mitotic arrest / accumulation of tetraploid cells (FACS DNA content) (HC11 cells [3]; undifferentiated HC11 at 80% confluence, Ro-3306 5 μM, 6 hours after treatment) | expression of Periplin-2 (PLIN2), ICC (HC11 cells [1]; [5]) | expression of β-Casein (Csn2), RT-qPCR (HC11 cells [1]; [5]) | formation of milk-containing domes (HC11 cells [1]; [5]) | nuclei number of cells generated (mono-, bi-, multinucleated) (HC11 cells [2]; blebbistatin, differentiated HC11 (DIP3)) | endoreplication / polyploidy (FACS DNA content) (HC11 cells [3]; blebbistatin 30 uM, differentiation day 3 (DIP3)) | mitotic arrest / proportion of tetraploid cells (FACS DNA content) (HC11 cells [3]; undifferentiated HC11 at 80% confluence, blebbistatin 30 uM, 6 hours post-treatment)
1 | O=C1NC(=NCc2cccs2)S/C1=C\c1ccc2ncccc2c1 [Ro-3306] | increases | increases | generates mono-, bi- and multinucleated polyploid cells | undergo further endoreplication, becoming polyploid | efficiently induces mitotic arrest, as detected by the accumulation of tetraploid cells |  |  |  |  |  | 
2 | Cc1ccc2c(c1)C(=O)C1(O)CCN(c3ccccc3)C1=N2 (centres unmarked) [blebbistatin] |  |  |  |  |  | increased expression | increased expression | increase in the formation of milk-containing domes | predominantly generates bi- and multinucleated cells | undergo further endoreplication, becoming polyploid | efficiently induces mitotic arrest in HC11 cells, increasing the proportion of tetraploid cells

Reference: patent publication US20240374626A1, “METHODS OF ENHANCING MILK PRODUCTION IN LACTATING MAMMALIAN SUBJECTS” (priority 2023, published 2024)
